Source: EP0359439A1, “Substituted pyridazinones” (ORION-YHTYMÄ OY, priority 1988, dated 1990)
Where “and” joins values, the source holds several entries; their conditions need not be identical. Identical values can stand only once.

Target: Canine Cardiac Phosphodiesterase III
Assay: Inhibition of Canine Cardiac Phosphodiesterase III enzyme
Assay type: biochemical
Conditions: concentration showing 50% inhibition of Canine Cardiac Phosphodiesterase III enzyme; read-out: IC₅₀
Excerpt: In Table 5 the concentration of the compounds showing 50% inhibition of Canine Cardiac Phosphodiesterase III enzyme is given.

Row | Structure (SMILES) | IC50
1 | O=C1CCC(c2ccc(N=C(c3ccccc3)c3ccc(O)cc3O)cc2)=NN1 [Compound C] | 19 nM
2 | O=C1CCC(c2ccc(N=Cc3c(O)ccc4ccccc34)cc2)=NN1 [Compound F, 6-[4-(2-hydroxynaphtyl)methyleneaminophenyl]-4,5-dihydropyridazin-3(2H)one] | > 10000 nM
3 | CC(=Nc1ccc(-c2ccc(=O)[nH]n2)cc1)c1ccc(O)cc1O [Compound H, 6-[4-(1-(2,4-Dihydroxyphenyl)ethylidene)aminophenyl]pyridazin-3(2H)one] | 140 nM
4 | COc1ccc(-c2nc3cc(C4=NNC(=O)CC4C)ccc3[nH]2)cc1 (stereo not drawn) [Pimobendan, 4,5-Dihydro-6-(2-(4-methoxyphenyl)-1H-benzimidazol-5-yl)-5-methyl-3(2H)-pyridazinone, reference compound] | 2000 nM and 1500 nM

More lines, now with the values ahead:

Row | IC50 | Structure (SMILES)
5 | 940 nM | CC1(C)C(=O)Nc2cc3nc(-c4ccncc4)[nH]c3cc21 [BM 14.478, 5,7-Dihydro-7,7-dimethyl-2-(4-pyridinyl)-pyrrolo-(2,3-f)benzimidazol-6(1H)-one, reference compound]
6 | 1700 nM | O=C1CCC(c2ccc(N=Cc3ccc(O)cc3O)cc2)=NN1 [Compound A, 6-[4-(2,4-Dihydroxyphenyl)methyleneaminophenyl]-4,5-dihydropyridazin-3(2H)one]
7 | 60 nM and 100 nM | CC(=Nc1ccc(C2=NNC(=O)CC2C)cc1)c1ccc(O)cc1O (stereo not drawn) [Compound D, 6-[4-(1-(2,4-Dihydroxyphenyl)ethylidene)aminophenyl]-4,5-dihydro-5-methylpyridazin-3(2H)one]
8 | 390 nM | CCC(=Nc1ccc(C2=NNC(=O)CC2)cc1)c1ccc(O)cc1O [Compound E, 6-[4-(1-(2,4-Dihydroxyphenyl)propylidene)aminophenyl]-4,5-dihydropyridazin-3(2H)one]
9 | 2 nM | O=C1CCC(c2ccc(N=C(CCc3ccccc3)c3ccc(O)cc3O)cc2)=NN1 [Compound L, 6-[4-(1-(2,4-dihydroxyphenyl)-3-phenylpropylidene)aminophenyl]-4,5-dihydropyridazin-3(2H)one]
